One assay has as its system S. epidermidis. As to the kind of experiment: Suspension test (germ count reduction by the formulation). The class given is cell-based. The following applies: active alone; Ethylhexylglycerin 0,5% in Makroemulsion ohne Octenidine (Abbildung 4). As for the experimental part:
Die Wirksamkeit wurde mittels der Freisetzung von Octenidine aus Makro- bzw. Mikroemulsionen untersucht, wie es beispielhaft in Abbildung 3 und 4 dargestellt ist. Ebenso sind Untersuchungen durchgeführt worden für W/O- Aerosol-Zubereitungen einmal mit und einmal ohne Octenidine, die zu gleichen Ergebnissen geführt haben. In den dargestellten Suspensionstests wurden zu 500µL einer Bakteriensuspension (S. epidermidis) 250 mg der zu testenden Formulierung gegeben (bei der Positivkontrolle nur 250 mg des Bakterienmediums). Diese Mischungen werden mit Medium auf 1000µL aufgefüllt. Die Suspension enthält dann ca. 1*10^6 KBE/mL (KBE: koloniebildende Einheiten). Die Ansätze werden bei 37°C unter Rotation für drei Stunden inkubiert. Nach 0, 20, 60 und 180 min werden Proben genommen, verdünnt und auf Agarplatten ausplattiert. Diese werden 24h bei 37°C zur Anzucht der verbleibenden Keime inkubiert. Gute und in vivo wirksame Deodorant-Formulierungen reduzieren die Keimzahl bereits nach 20 Minuten auf Nachweisgrenze von 100 KBE/mL. Formulierungen mit schlechterer Keimzahl-Reduktion zeigen in vivo keine ausreichende Deoleistung.

The next assay has as its system Bakterien. Description: Investigations of efficacy of amphiphilic actives from micro- and macroemulsions (method not specified).

As to `CCCCC(CC)COCC(O)CO` (centres unmarked) [Ethylhexylglycerin, 1-(2-Ethylhexyl)glycerinether], in the assay on S. epidermidis, the “Wirksamkeit im Suspensionstest (Keimzahl-Reduktion)” value is reported as “nicht wirksam”. For the compound `CCCCCCCCN=c1ccn(CCCCCCCCCCn2ccc(=NCCCCCCCC)cc2)cc1.Cl.Cl` [Octenidine HCl, N, N'-(1,10-decanediyldi-1[4H]-pyridinyl-4-ylidene)-bis-(octanamine) dihydrochloride], the “Wirksamkeit im Suspensionstest (Keimzahl-Reduktion)” value with S. epidermidis is “gewünschte Wirksamkeit”. In addition, the Wirksamkeit result with Bakterien (aus Makroemulsionen) is on record as “zeigen eine Wirksamkeit”. Turning to `CC(C)(C)CC(C)(C)c1ccc(OCCOCC[N+](C)(C)Cc2ccccc2)cc1` [Benzethonium chloride], the Wirksamkeit result in the assay with Bakterien (aus Makroemulsionen) is “zeigen eine Wirksamkeit”; in the assay on Bakterien (in einer Mikroemulsion), “unwirksam”.
